From patent US11147797B2, “Photodynamic therapeutic compounds and photodynamic methods of treatment” (SALT AND LIGHT PHARMACEUTICALS PTY. LTD., priority 2016, dated 2021)

What was measured:
[1] = system: binding between Ras and Ras-binding domain (RBD) of Rafl; experiment: Ras pulldown with inhibitor interference (Active Ras PullDown and Detection Kit, Western blot)
Excerpt: 1.5.1 Ras pulldown with inhibitor interference: Inhibition of compounds on binding between Ras and Ras-binding domain (RBD) of Rafl was firstly analysed using Active Ras PullDown and Detection Kit (Thermofisher Scientific, Catalogue no 16117). The protocol was in accordance with the manual supplied with the kit. Western blot analysis was used to measure the inhibition. The known Inhibitor Kobe0065 was purchased from Focus Biosciences, Australia (www.focusbio.com.au) and used as the positive control.

[2] = system: Ras-Raf binding; experiment: Ras activation ELIZA kit assay (chemiluminescent)
Experimental: 1.5.2 ELIZA Assay: Another method to detect the inhibition of the Representative Compounds used a Ras activation ELIZA kit (Merck Millipore, Cat no 17-497). The protocol was in accordance with the manual provided with the kit. The inhibition was measured using a Chemiluminescent imaging system. The known inhibitor Kobe0065 was purchased from Focus Biosciences, Australia (www.focusbio.com.au) and used as the positive control.

[3] = Absorption spectrum; assay type: physicochemical; details: compound 10 μM; long wavelength range
Experimental: 1.4 Absorption spectrum: The absorption spectra of the Representative Compounds were acquired. The concentration of compound was 10 μM.

[4] = system: HCT-116 cells; experiment: Cell proliferation assay (Cell Titre-Blue Cell Viability Assay); assay type: cell-based; details: Homo sapiens; HCT-116 colon-cancer cell line; FIG. 9, FIG. 10; read-out: IC50, inhibition of cell growth of HCT-116
Experimental: 1.8 Cells: Human cell lines were obtained from the NIH cell culture and cultured in media recommended by supplier.
1.9: Cell Proliferation Assays: Cells (2-3000) were seeded in a 96-well plate and cultured in McCoy's 5 containing 10% (vol/vol) FBS in the presence of one of compounds. Viable cell numbers were measured using a fluorometric kit (“Cell Titre-Blue Cell Viability Assay”: Promega Inc, USA). The viable cells convert blue colour dye to red/pink after incubating at 37 degrees with 5% CO2.

Row | SMILES | Ras-Raf inhibition, Ras pulldown ([1]; 10 uM compound) [%] | Ras-Raf inhibition, Ras pulldown ([1]; 50 uM compound) [%] | Ras-Raf inhibition, ELIZA ([2]; 10 uM compound) [%] | Ras-Raf inhibition, ELIZA ([2]; 50 uM compound) [%] | IC50 ([2]; estimated from Table 2, read-out: inhibition IC50, Ras activation ELIZA assay) [µM] | IC50 ([1]; estimated from Table 2, read-out: inhibition IC50, Ras pulldown assay) [µM] | inhibition in Ras activation ELIZA assay compared with Ras pulldown assay ([2]; in words) | absorption band [3] [nm] | IC50 [4] [µM]
1 | Cc1ccc(NC(=S)NNc2c([N+](=O)[O-])cc(C(F)(F)F)cc2[N+](=O)[O-])cc1Cl [Kobe0065, reference compound] | 0 | 76 | 66.8 | 73.11 | < 10 | – | – | – | –
2 | C1=Cc2nc1c(-c1ccncc1)c1ccc([nH]1)c(-c1ccncc1)c1nc(c(-c3ccncc3)c3ccc([nH]3)c2-c2ccncc2)C=C1 [Representative Compound 1] | 0 | 76.5 | 34.61 | 35.73 | – | 10 to 50 | much weaker | – | –
3 | C[n+]1cccc(-c2c3nc(c(-c4ccccc4)c4ccc(cc5nc(c(-c6ccccc6)c6ccc2[nH]6)C=C5)[nH]4)C=C3)c1.[I-] [Representative Compound 10, 3-(10,20-diphenylporphyrin-5-yl)-1-methylpyridin-1-ium iodide] | – | – | 35.2 | 13.4 | – | – | – | 637 | 20 to 25
